Measurements published in patent publication US8716475B2, “2-aminopyrimidine modulators of the histamine H4 receptor” (Janssen Pharmaceutica NV, priority 2007, dated 2014).
Counter-ions that a name gives are not always drawn.

Target: T1, human H4 receptor (Homo sapiens, UniProt Q9H3N8)
T1 construct: expressed in transfected cells
Assay: Binding Assay on Recombinant Human Histamine H4 Receptor
Details: Table 2, data marked with an asterisk (*): obtained by the cell harvester method; [3H] histamine competition binding, SK-N-MC membranes
How it was run: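 Radioligand binding used membranes from SK-N-MC cells stably or transiently expressing human H4, prepared in 50 mM Tris/5 mM EDTA. Nonspecific binding was defined with 100 μM histamine. Bound radioactivity was counted after filtration on PEI-treated GF/C filters, and ">" values are the highest concentration tested.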

T1 sequence (Q9H3N8 whole entry): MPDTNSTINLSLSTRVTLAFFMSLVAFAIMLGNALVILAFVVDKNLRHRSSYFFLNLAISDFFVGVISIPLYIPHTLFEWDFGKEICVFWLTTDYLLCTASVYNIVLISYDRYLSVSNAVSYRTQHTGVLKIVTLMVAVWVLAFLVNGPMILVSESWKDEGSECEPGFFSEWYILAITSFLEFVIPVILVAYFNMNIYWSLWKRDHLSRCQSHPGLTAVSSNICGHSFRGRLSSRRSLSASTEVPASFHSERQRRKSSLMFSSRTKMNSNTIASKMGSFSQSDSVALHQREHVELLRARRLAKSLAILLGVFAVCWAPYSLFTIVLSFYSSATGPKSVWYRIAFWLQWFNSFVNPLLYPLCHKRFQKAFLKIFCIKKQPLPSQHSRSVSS

Row | SMILES | Ki
1 | CN(CCN)c1cc(C(C)(C)C)nc(N)n1 [Example 131, N^4-(2-Amino-ethyl)-6-tert-butyl-N^4-methyl-pyrimidine-2,4-diamine] | 412 nM
2 | CC(C)(C)c1cc(N2C[C@H]3CNC[C@H]3C2)nc(N)n1 [Example 132, 4-tert-Butyl-6-(cis-hexahydro-pyrrolo[3,4-c]pyrrol-2-yl)-pyrimidin-2-ylamine] | 356 nM
3 | CC(C)(C)c1cc(N2CC(N)C2)nc(N)n1 [Example 133, 4-(3-Amino-azetidin-1-yl)-6-tert-butyl-pyrimidin-2-ylamine] | 238 nM

Same assay, conditions: Table 2; [3H] histamine competition binding, membranes of SK-N-MC cells transfected with human H4 receptor; average of results

Row | SMILES | Ki
4 | CC(C)c1cc(N2CC[C@H](N)C2)nc(N)n1 [Example 126, (S)-4-(3-Amino-pyrrolidin-1-yl)-6-isopropyl-pyrimidin-2-ylamine] | 23 nM
5 | CC(C)(C)c1cc(N2CC[C@@H](N)C2)nc(N)n1 [Example 127, (R)-4-(3-Amino-pyrrolidin-1-yl)-6-tert-butyl-pyrimidin-2-ylamine] | 9 nM
6 | CN1C[C@@H]2CN(c3cc(C(C)(C)C)nc(N)n3)C[C@@H]2C1 [Example 128, 4-tert-Butyl-6-(cis-5-methyl-hexahydro-pyrrolo[3,4-c]pyrrol-2-yl)-pyrimidin-2-ylamine] | 19 nM
7 | CC(C)(C)c1cc(N2CC[C@H](N)C2)nc(N)n1 [Example 129, (S)-4-(3-Amino-pyrrolidin-1-yl)-6-tert-butyl-pyrimidin-2-ylamine] | 46 nM
8 | CC(C)(C)c1cc(N2CC3CCC(C2)N3)nc(N)n1 [Example 134, 4-tert-Butyl-6-(3,8-diaza-bicyclo[3.2.1]oct-3-yl)-pyrimidin-2-ylamine] | 130 nM
9 | CCCCc1cc(N2CC[C@@H](N)C2)nc(N)n1 [Example 135, (R)-4-(3-Amino-pyrrolidin-1-yl)-6-butyl-pyrimidin-2-ylamine] | 4 nM
10 | CCCCc1cc(N2CCN(C)CC2)nc(N)n1 [Example 136, 4-Butyl-6-(4-methyl-piperazin-1-yl)-pyrimidin-2-ylamine] | 1 nM
11 | CCCCc1cc(N2CC[C@@H](NC)C2)nc(N)n1 [Example 137, (R)-4-Butyl-6-(3-methylamino-pyrrolidin-1-yl)-pyrimidin-2-ylamine] | 2 nM
12 | CCCCc1cc(N(C)CCN)nc(N)n1 [Example 138, N^4-(2-Amino-ethyl)-6-butyl-N^4-methyl-pyrimidine-2,4-diamine] | 44 nM
13 | CCCCc1cc(N2C[C@H]3CN(C)C[C@H]3C2)nc(N)n1 [Example 139, 4-Butyl-6-(cis-5-methyl-hexahydro-pyrrolo[3,4-c]pyrrol-2-yl)-pyrimidin-2-ylamine] | 138 nM
14 | CCCCc1cc(N2C[C@H]3CNC[C@H]3C2)nc(N)n1 [Example 140, Butyl-6-(cis-hexahydro-pyrrolo[3,4-c]pyrrol-2-yl)-pyrimidin-2-ylamine] | 397 nM
15 | CCCCc1cc(N2CC3CCCNC3C2)nc(N)n1 (stereo not drawn) [Example 141, 4-Butyl-6-(cis-octahydro-pyrrolo[3,4-b]pyridin-6-yl)-pyrimidin-2-ylamine] | 84 nM
16 | CCCCc1cc(N2CCNCC2)nc(N)n1 [Example 142, 4-Butyl-6-piperazin-1-yl-pyrimidin-2-ylamine] | 3 nM
17 | CCCCc1cc(N2CC3CCC(C2)N3)nc(N)n1 [Example 143, 4-Butyl-6-(3,8-diaza-bicyclo[3.2.1]oct-3-yl)-pyrimidin-2-ylamine] | 13 nM
18 | CCCc1cc(N2CCN(C)CC2)nc(N)n1 [Example 144, 4-(4-Methyl-piperazin-1-yl)-6-propyl-pyrimidin-2-ylamine] | 6 nM
19 | CCCc1cc(N2C[C@H]3CN(C)C[C@H]3C2)nc(N)n1 [Example 145, 4-(cis-5-Methyl-hexahydro-pyrrolo[3,4-c]pyrrol-2-yl)-6-propyl-pyrimidin-2-ylamine] | 117 nM
20 | CC(C)Cc1cc(N2CCN(C)CC2)nc(N)n1 [Example 146, 4-Isobutyl-6-(4-methyl-piperazin-1-yl)-pyrimidin-2-ylamine] | 3 nM

Row | SMILES | Ki
21 | CC(C)Cc1cc(N2CCNCC2)nc(N)n1 [Example 147, 4-Isobutyl-6-piperazin-1-yl-pyrimidin-2-ylamine] | 4 nM
22 | CN[C@@H]1CCN(c2cc(CC(C)C)nc(N)n2)C1 [Example 148, (R)-4-Isobutyl-6-(3-methylamino-pyrrolidin-1-yl)-pyrimidin-2-ylamine] | 1 nM
23 | CC(C)Cc1cc(N2CC[C@@H](N)C2)nc(N)n1 [Example 149, (R)-4-(3-Amino-pyrrolidin-1-yl)-6-isobutyl-pyrimidin-2-ylamine] | 3 nM
24 | CCc1cc(N2CC[C@H](NC)C2)nc(N)n1 [Example 150, (S)-4-Ethyl-6-(3-methylamino-pyrrolidin-1-yl)-pyrimidin-2-ylamine] | 85 nM
25 | CC1(c2cc(N3CCNCC3)nc(N)n2)CCOCC1 [Example 153, 4-(4-Methyl-tetrahydro-pyran-4-yl)-6-piperazin-1-yl-pyrimidin-2-ylamine] | 97 nM
26 | CN1CCN(c2cc(C3(C)CCOCC3)nc(N)n2)CC1 [Example 154, 4-(4-Methyl-piperazin-1-yl)-6-(4-methyl-tetrahydro-pyran-4-yl)-pyrimidin-2-ylamine] | 49 nM
27 | CN[C@@H]1CCN(c2cc(C3(C)CCOCC3)nc(N)n2)C1 [Example 155, (R)-4-(3-Methylamino-pyrrolidin-1-yl)-6-(4-methyl-tetrahydro-pyran-4-yl)-pyrimidin-2-ylamine] | 82 nM
28 | Nc1nc(C2CC2c2ccccc2)cc(N2CCNCC2)n1 (stereo not drawn) [Example 156, 4-(trans-2-Phenyl-cyclopropyl)-6-piperazin-1-yl-pyrimidin-2-ylamine] | 12 nM
29 | CN1CCN(c2cc(C3CC3c3ccccc3)nc(N)n2)CC1 (stereo not drawn) [Example 158, 4-(4-Methyl-piperazin-1-yl)-6-(trans-2-phenyl-cyclopropyl)-pyrimidin-2-ylamine] | 8 nM
30 | NCCNc1cc(C2CC2c2ccccc2)nc(N)n1 (stereo not drawn) [Example 159, N^4-(2-Amino-ethyl)-6-(trans-2-phenyl-cyclopropyl)-pyrimidine-2,4-diamine] | 42 nM
31 | Nc1nc(C2Cc3ccccc3C2)cc(N2CC(N)C2)n1 [Example 161, 4-(3-Amino-azetidin-1-yl)-6-indan-2-yl-pyrimidin-2-ylamine salt] | 24 nM
32 | Nc1nc(C2Cc3ccccc3C2)cc(N2CC[C@@H](N)C2)n1 [Example 162, (R)-4-(3-Amino-pyrrolidin-1-yl)-6-indan-2-yl-pyrimidin-2-ylamine] | 5 nM
33 | CN1CCN(c2cc(C3Cc4ccccc4C3)nc(N)n2)CC1 [Example 163, 4-Indan-2-yl-6-(4-methyl-piperazin-1-yl)-pyrimidin-2-ylamine] | 2 nM
34 | CN[C@@H]1CCN(c2cc(C3Cc4ccccc4C3)nc(N)n2)C1 [Example 164, (R)-4-Indan-2-yl-6-(3-methylamino-pyrrolidin-1-yl)-pyrimidin-2-ylamine] | 4 nM
35 | Nc1nc(C2Cc3ccccc3C2)cc(N2CCNCC2)n1 [Example 165, 4-Indan-2-yl-6-piperazin-1-yl-pyrimidin-2-ylamine] | 2 nM
36 | Nc1nc(Cc2ccccc2)cc(N2CC(N)C2)n1 [Example 166, 4-(3-Amino-azetidin-1-yl)-6-benzyl-pyrimidin-2-ylamine] | 52 nM
37 | Nc1nc(Cc2ccccc2)cc(N2CC[C@@H](N)C2)n1 [Example 167, (R)-4-(3-Amino-pyrrolidin-1-yl)-6-benzyl-pyrimidin-2-ylamine] | 78 nM
